Assay results taken from ChEMBL document CHEMBL1201862, “PubChem BioAssay data set” (2004).
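All cell lines were grown in 96-well plates and treated with compound for 48 hours. GI50 = concentration required for 50% inhibition of growth.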 Active and inactive are the calls of the source. Cut-off read from the data, not from the text of the source: active = GI50 up to about 1.1 µM and inactive = higher.

Experiments:
Assay in all cases: growth of human tumour cells (NCI), 48 h
786-0 = test system: 786-0
A498 = test system: A498
A549 = test system: A549
ACHN = test system: ACHN
BT-549 = test system: BT-549
CAKI-1 = test system: CAKI-1
CCRF-CEM = test system: CCRF-CEM
COLO 205 = test system: COLO 205
DU-145 = test system: DU-145
EKVX = test system: EKVX
HCT-116 = test system: HCT-116
HCT-15 = test system: HCT-15
HOP-62 = test system: HOP-62
HOP-92 = test system: HOP-92
HT-29 = test system: HT-29
Hs-578T = test system: Hs-578T
IGROV-1 = test system: IGROV-1
K562 = test system: K562
KM12 = test system: KM12
LOX IMVI = test system: LOX IMVI
M14 = test system: M14
MCF7 = test system: MCF7
MDA-MB-231 = test system: MDA-MB-231
MDA-MB-435 = test system: MDA-MB-435
MOLT-4 = test system: MOLT-4
Malme-3M = test system: Malme-3M
NCI-H226 = test system: NCI-H226
NCI-H23 = test system: NCI-H23
NCI-H460 = test system: NCI-H460
NCI-H522 = test system: NCI-H522
NCI/ADR-RES = test system: NCI/ADR-RES
OVCAR-3 = test system: OVCAR-3
OVCAR-4 = test system: OVCAR-4
OVCAR-5 = test system: OVCAR-5
OVCAR-8 = test system: OVCAR-8
PC-3 = test system: PC-3
RPMI-8226 = test system: RPMI-8226
RXF 393 = test system: RXF 393
SF-268 = test system: SF-268
SF-295 = test system: SF-295
SF-539 = test system: SF-539
SK-MEL-28 = test system: SK-MEL-28
SK-MEL-2 = test system: SK-MEL-2
SK-MEL-5 = test system: SK-MEL-5
SK-OV-3 = test system: SK-OV-3
SN12C = test system: SN12C
SNB-19 = test system: SNB-19
SNB-75 = test system: SNB-75
SR = test system: SR
SW-620 = test system: SW-620
T47D = test system: T47D
TK-10 = test system: TK-10
U-251 = test system: U-251
UACC-257 = test system: UACC-257
UACC-62 = test system: UACC-62
UO-31 = test system: UO-31
HL-60 = test system: HL-60

Measured: GI50

Cn1c(=O)c2c(nc(N3CCOCC3)n2CCCNCC(O)c2ccc(O)c(O)c2)n(C)c1=O (centres undefined)
> 100 µM: HCT-15
active: MDA-MB-231 0.0262 µM
inactive: 786-0 > 100 µM | A498 > 100 µM | A549 > 100 µM | ACHN > 100 µM | BT-549 > 100 µM | CAKI-1 > 100 µM | CCRF-CEM > 100 µM | COLO 205 > 100 µM | DU-145 > 100 µM | EKVX > 100 µM | HCT-116 > 100 µM | HOP-62 > 100 µM | HOP-92 > 100 µM | HT-29 > 100 µM | Hs-578T > 100 µM | IGROV-1 > 100 µM | K562 > 100 µM | KM12 > 100 µM | LOX IMVI > 100 µM | M14 > 100 µM | MCF7 > 100 µM | MDA-MB-435 38.9 µM | MOLT-4 20.8 µM | Malme-3M > 100 µM | NCI-H226 > 100 µM | NCI-H23 > 100 µM | NCI-H460 > 100 µM | NCI-H522 > 100 µM | NCI/ADR-RES > 100 µM | OVCAR-3 > 100 µM | OVCAR-4 > 100 µM | OVCAR-5 23.9 µM | OVCAR-8 25.4 µM | PC-3 > 100 µM | RPMI-8226 > 100 µM | RXF 393 > 100 µM | SF-268 > 100 µM | SF-295 > 100 µM | SF-539 > 100 µM | SK-MEL-28 > 100 µM | SK-MEL-2 > 100 µM | SK-MEL-5 > 100 µM | SK-OV-3 > 100 µM | SN12C 81.8 µM | SNB-19 > 100 µM | SNB-75 > 100 µM | SR 10 µM | SW-620 > 100 µM | T47D > 100 µM | TK-10 > 100 µM | U-251 > 100 µM | UACC-257 > 100 µM | UACC-62 > 100 µM | UO-31 > 100 µM

CC1(C)CCc2c(ccc(C(=O)/C=C/c3ccc(O)cc3)c2O)O1 [DORSMANNIN A]
inactive: A498 13.7 µM | A549 11.9 µM | ACHN 10.7 µM | BT-549 12.2 µM | CAKI-1 5.28 µM | CCRF-CEM 2.78 µM | COLO 205 10.9 µM | DU-145 9.25 µM | HCT-116 10.3 µM | HL-60 19.7 µM | HOP-62 9.91 µM | HOP-92 11.2 µM | HT-29 11.9 µM | Hs-578T 14.1 µM | IGROV-1 9.1 µM | K562 27.8 µM | LOX IMVI 10.2 µM | M14 10.9 µM | MCF7 14.2 µM | MDA-MB-231 9.25 µM | MDA-MB-435 10.3 µM | MOLT-4 16.1 µM | Malme-3M 7.59 µM | NCI-H226 11.3 µM | NCI-H23 12.5 µM | NCI-H460 12.1 µM | NCI/ADR-RES 11.4 µM | OVCAR-3 8.99 µM | OVCAR-4 9.48 µM | OVCAR-5 11.6 µM | OVCAR-8 12 µM | PC-3 8.57 µM | RPMI-8226 8.39 µM | RXF 393 10.6 µM | SF-268 12.9 µM | SF-295 12.4 µM | SF-539 11.9 µM | SK-MEL-2 11.9 µM | SK-MEL-5 11.2 µM | SK-OV-3 17.7 µM | SN12C 10.9 µM | SNB-19 13.9 µM | SR 11.9 µM | SW-620 13 µM | T47D 1.56 µM | TK-10 10.3 µM | U-251 10.4 µM | UACC-257 12.5 µM | UACC-62 10 µM | UO-31 12.3 µM
10.8 µM: HCT-15
active: EKVX 0.142 µM | SK-MEL-28 0.201 µM
